Active and inactive are the calls of the source. The rule behind the calls is not given here.
Tests used:
HaCaT [1] = test: Induction of ROS production in human HaCaT cells at 400 uM incubated for 3 hrs by DCFH-DA staining based fluorimetry; assay type: functional, cell-based
[2] = target: T1, Nuclear factor erythroid 2-related factor 2 (Homo sapiens, UniProt Q16236); test: Activation of Nrf2 in human HaCaT-ARE-Luc cells expressing Nqo1 ARE-Luc reporter plasmid incubated for 6 hrs by luciferase reporter gene assay; assay type: cell-based
T1 sequence (Q16236 whole entry): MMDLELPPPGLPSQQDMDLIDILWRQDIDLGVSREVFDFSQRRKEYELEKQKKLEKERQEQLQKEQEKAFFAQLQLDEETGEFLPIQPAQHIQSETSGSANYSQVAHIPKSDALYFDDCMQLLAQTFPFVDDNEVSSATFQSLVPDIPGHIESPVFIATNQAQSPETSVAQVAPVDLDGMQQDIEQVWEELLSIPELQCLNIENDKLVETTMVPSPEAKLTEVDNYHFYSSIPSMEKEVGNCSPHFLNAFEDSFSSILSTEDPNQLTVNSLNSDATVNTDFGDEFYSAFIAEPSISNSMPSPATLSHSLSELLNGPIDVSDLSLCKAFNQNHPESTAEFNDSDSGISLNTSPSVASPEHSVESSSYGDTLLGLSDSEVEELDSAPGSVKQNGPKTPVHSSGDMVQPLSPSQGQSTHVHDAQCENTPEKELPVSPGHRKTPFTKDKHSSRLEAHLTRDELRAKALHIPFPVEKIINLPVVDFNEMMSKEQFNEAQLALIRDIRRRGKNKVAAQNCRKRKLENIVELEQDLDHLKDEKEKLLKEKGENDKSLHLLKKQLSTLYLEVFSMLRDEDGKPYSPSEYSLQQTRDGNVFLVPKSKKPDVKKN

[3] = Inhibition of TNFalpha-induced NFkappaB (unknown origin) expressed in mouse NIH3T3-KBF-Luc cells pre-incubated for 15 mins before TNFalpha stimulation for 6 hrs by luciferase reporter gene assay; assay type: cell-based, Homo sapiens
Homo sapiens = organism: Homo sapiens; test: Inhibition of TNFalpha-induced NFkappaB (unknown origin) canonical pathway expressed in mouse NIH3T3-KBF-Luc cells assessed as inhibition of IkappaB-alpha phosphorylation pre-incubated for 15 mins before TNFalpha stimulation for 6 hrs by Western blot analysis; assay type: cell-based
[4] = target: Transcription factor p65 (Homo sapiens) (UniProt Q04206); test: Inhibition of TNFalpha-induced NFkappaB (unknown origin) canonical pathway expressed in mouse NIH3T3-KBF-Luc cells assessed as inhibition of p65 phosphorylation pre-incubated for 15 mins before TNFalpha stimulation for 6 hrs by Western blot analysis; assay type: cell-based
Chain of Transcription factor p65 (Homo sapiens) (Q04206 whole entry): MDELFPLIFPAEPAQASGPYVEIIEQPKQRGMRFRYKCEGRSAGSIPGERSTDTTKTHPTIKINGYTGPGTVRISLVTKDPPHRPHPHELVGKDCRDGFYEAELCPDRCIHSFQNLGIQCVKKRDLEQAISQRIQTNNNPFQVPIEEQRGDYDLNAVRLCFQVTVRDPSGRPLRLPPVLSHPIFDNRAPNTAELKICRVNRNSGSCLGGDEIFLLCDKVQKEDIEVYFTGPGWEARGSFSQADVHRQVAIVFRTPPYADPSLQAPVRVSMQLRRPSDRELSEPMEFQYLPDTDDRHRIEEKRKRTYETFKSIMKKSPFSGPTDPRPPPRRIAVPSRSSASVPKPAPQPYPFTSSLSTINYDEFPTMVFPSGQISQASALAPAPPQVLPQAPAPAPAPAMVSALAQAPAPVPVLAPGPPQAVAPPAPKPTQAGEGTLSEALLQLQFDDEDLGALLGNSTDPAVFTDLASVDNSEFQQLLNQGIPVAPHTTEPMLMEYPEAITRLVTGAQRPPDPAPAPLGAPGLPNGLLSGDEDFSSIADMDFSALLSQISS

HaCaT [5] = test: Induction of ROS production in human HaCaT cells at 10 uM incubated for 3 hrs by DCFH-DA staining based fluorimetry; assay type: functional, cell-based
[6] = target: T2, Nuclear factor erythroid 2-related factor 2 (Homo sapiens) (UniProt Q16236); test: Activation of Nrf2 in human HaCaT-ARE-Luc cells expressing Nqo1 ARE-Luc reporter plasmid at 0.1 to 50 uM in presence of 15 mM NAC incubated for 6 hrs by luciferase reporter gene assay; assay type: cell-based
T2 sequence (whole entry): T1 sequence (Q16236 whole entry)

| EC50 [2] [µM] | IC50 [3] [µM] | Compound | also measured |
| --- | --- | --- | --- |
|  |  | CC(C)(C)OO | Activity (HaCaT [1]): Active |
| > 50 | > 50 | COC(=O)[C@]12CCC(C)(C)C[C@H]1C1=CC[C@@H]3[C@@]4(C)C/C(=C\OC5C=C(C)C(=O)O5)C(=O)C(C)(C)[C@@H]4CC[C@@]3(C)[C@]1(C)CC2 (stereo partly drawn) |  |
| 26.3 | > 50 | CC1=CC(OC2C[C@H](C)CC[C@H]2C(C)C)OC1=O (stereo partly drawn) |  |
| 1.9 | > 50 | CC1=CC(O/C=C2/C(=O)C(C)[C@H]3C[C@@]23C(C)C)OC1=O (stereo partly drawn) |  |
| > 50 | > 50 | C=C(C)[C@@H]1CC[C@]2(C)CC[C@]3(C)[C@H](CC[C@@H]4[C@@]5(C)C/C(=C\OC6C=C(C)C(=O)O6)C(=O)C(C)(C)[C@@H]5CC[C@]43C)[C@@H]12 (stereo partly drawn) |  |
| > 50 | > 50 | COC(=O)[C@]12CC[C@@H](C)[C@H](C)[C@H]1C1=CC[C@@H]3[C@@]4(C)C/C(=C\OC5C=C(C)C(=O)O5)C(=O)C(C)(C)[C@@H]4CC[C@@]3(C)[C@]1(C)CC2 (stereo partly drawn) | inhibition (Homo sapiens): inactive; inhibition [4]: inactive |
| 5 | > 50 | CC1=CC(O/C=C2/C(=O)C(=C(C)C)CC[C@H]2C)OC1=O (stereo partly drawn) |  |
| 1.2 |  | CC1=C[C@H](O/C=C2/C(=O)O[C@@H]3C4=C(C[C@H]23)[C@@H](O)CCC4(C)C)OC1=O [STRIGOL] |  |
| 16.3 | > 50 | CC1=CC(OCc2ccc(C(C)C)cc2)OC1=O (stereo not drawn) |  |
| > 50 | > 50 | C=C(C)[C@@H]1CC[C@]2(C(=O)OC)CC[C@]3(C)[C@H](CC[C@@H]4[C@@]5(C)C/C(=C\OC6C=C(C)C(=O)O6)C(=O)C(C)(C)[C@@H]5CC[C@]43C)[C@@H]12 (stereo partly drawn) |  |
| 1.2 | 7.9 | CC1=CC(O/C=C2\C[C@]3(C)C(COc4ccc5ccc(=O)oc5c4)[C@](C)(O)CC[C@H]3C(C)(C)C2=O)OC1=O (stereo partly drawn) | Activity (HaCaT [5]): inactive; Activity [6]: inactive |
| 29.5 | > 50 | CC(C)=CCOC1C=C(C)C(=O)O1 (stereo not drawn) |  |
| 15.5 | > 50 | CC1=CC(OCC2=CC3CC(C2)C3(C)C)OC1=O (stereo not drawn) |  |
| > 50 | > 50 | COC(=O)[C@@]1(C)CC[C@]2(C)CC[C@]3(C)C(=CC(=O)[C@@H]4[C@@]5(C)C/C(=C\OC6C=C(C)C(=O)O6)C(=O)C(C)(C)[C@@H]5CC[C@]43C)[C@@H]2C1 (stereo partly drawn) |  |
| 2.5 |  | COC(=O)/C(C)=C/CC/C(C)=C/CC/C(C)=C/CC[C@@H]1[C@@]2(C)C/C(=C\OC3C=C(C)C(=O)O3)C(=O)C(C)(C)C2CC[C@@]1(C)O (stereo partly drawn) |  |
| > 50 | > 50 | CC1=CC(O/C=C2\C[C@]3(C)[C@H]4CC=C5[C@@H]6CC(C)(C)CC[C@]6(C)CC[C@@]5(C)[C@]4(C)CC[C@H]3C(C)(C)C2=O)OC1=O (stereo partly drawn) |  |
| > 50 | > 50 | CC1=CC(O/C=C2\C[C@]3(C)[C@H]4CC=C5[C@@H]6[C@@H](C)[C@H](C)CC[C@]6(C)CC[C@@]5(C)[C@]4(C)CC[C@H]3C(C)(C)C2=O)OC1=O (stereo partly drawn) |  |
| 22.8 | > 50 | CC(C)=CCCC(C)CCOC1C=C(C)C(=O)O1 (stereo not drawn) |  |
| 17.8 | > 50 | CC1=CC(O/C=C2/C(=O)[C@H](C(C)C)CC[C@H]2C)OC1=O (stereo partly drawn) |  |
| 1.6 | > 50 | C=C(C)[C@@H]1CC=C(C)C(=O)/C1=C/OC1C=C(C)C(=O)O1 (stereo partly drawn) |  |
| 16.2 | > 50 | CC(C)=CCC/C(C)=C/COC1C=C(C)C(=O)O1 (stereo not drawn) |  |
